Data as given in publication PMC7076385, “Evaluation of the Solid Dispersion System Engineered from Mesoporous Silica and Polymers for the Poorly Water Soluble Drug Indomethacin: In Vitro and In Vivo” (Pharmaceutics, 2020).
≈ marks a conversion by molar mass, not a printed value.

What was measured:
[1] = Solubility studies (crystalline and amorphous solubility, UV analysis); type: physicochemical; conditions: phosphate buffered saline (PBS), pH 6.8 PBS, 25 °C
Protocol: The “crystalline solubility” was measured by the following method. An excess amount of crystal IMC powder was added to 10 mL of pH 6.8 PBS. These mixtures were kept at 25 °C and stirred at 300 rpm for 48 h. Ultracentrifugation was performed at 12,000 rpm and 25 °C for 30 min to separate excess solids using an Optima L-100XP ultracentrifuge (Beckman Coulter Inc., Brea, CA, USA). Then 5 mL of the supernatant was taken for ultraviolet (UV) spectroscopy analysis. All samples were prepared in triplicate.
The solubility of the amorphous IMC in the presence of excipients was also determined by calculating the solution concentration evolved from SDs at 25 °C after 48 h. Briefly, IMC–SDs were prepared by solvent evaporation directly from scintillation vials using a rotary evaporator. Then, 10 mL of pH 6.8 PBS was added. Solution concentration measurements were conducted following the ultraviolet (UV) spectroscopy analysis. The concentration of IMC was calculated with a standard curve built before.

[2] = In vitro dissolution, USP II paddle method; type: physicochemical; conditions: at 90 min, pH 6.8 PBS
Protocol: The optimum ratios of all solid dispersion carriers were selected by drug release experiments in vitro. In vitro dissolution studies on pure IMC and SDs with different carriers were carried out using the United States Pharmacopeia Apparatus II (USP II) paddle method (100 rpm, 37 °C, and 250 mL pH 6.8 phosphate buffer solutions) with a ZRS-8G dissolution tester (Shanghai, China). Ten milligrams of sample powder was placed in the dissolution medium, and 5 mL of pH 6.8 phosphate buffer solution (PBS, artificial intestinal fluid) was withdrawn at pre-designed time intervals (0, 5, 10, 15, 20, 30, 40, 50, 60 and 90 min) prior to filtration. The concentration of samples was analyzed using an UV spectrophotometer (756 PC UV-2200, Shanghai, China) at 320 nm. All measurements were repeated three times.

[3] = In vivo pharmacokinetic study after oral administration; conditions: male, Sprague-Dawley, rat, plasma, rats, 40 mg/kg
Protocol: Male Sprague–Dawley rats (body weight 200 ± 20 g) were randomly divided into three groups (n = 3). Sprague–Dawley rats (200 ± 20 g) were obtained from Animal Experiment Center of Shanghai Institute of Material Medica, Shanghai, China. All animal experiments were performed by strictly following Institutional Animal Care and Use Committee (IACUC) guidelines (71044, 10 August 2019). Prior to the experiments, the rats were fasted overnight with free access to water. Aqueous suspensions of IMC, SDs with MSNs (F3), SDs with MSNs and Kollicoat IR (F6), and SDs with MSNs and HPMC (F9) at 40 mg/kg were orally administered, respectively, and blood samples (0.5 mL) were collected at different time points (0, 0.5, 1, 2, 4, 6, 8, 12, and 24 h) in microcentrifuge tubes containing heparin by retro-orbital venipuncture technique. The blood samples were immediately centrifuged at 4000 rpm for 10 min, and the supernatant was collected for further processing.
Plasma samples were processed as follows: 200 µL plasma samples were mixed with 20 µL of an internal standard solution (0.5 mg/mL naproxen), 90 µL 10% KH2PO4, and 1 mL dichloromethane, and then the mixture was vortexed for 3 min. Then, the mixture solutions were centrifuged at 10,000 rpm for 4 min, the organic layer was remained, and then the organic layer was evaporated in a gentle stream of nitrogen at room temperature. The residue was suspended in 100 µL of the mobile phase (acetonitrile:0.01 M H3PO4 = 55:45). After vortex mixing and centrifugation, samples were analyzed using HPLC.

[4] = based on Equations (6) and (7); cited from earlier work

COc1ccc2c(c1)c(CC(=O)O)c(C)n2C(=O)c1ccc(Cl)cc1 [IMC, Indomethacin]
solubility at 48 h [1]: 23 µg/mL (≈ 64.3 µM)
Folds (increase of cumulative dissolution rate compared to pure IMC) [2]: 1.00 ± 0.28 folds
Cumulative Drug Dissolution Rate (%) ([2]; 37 °C, 100 rpm, mean ± SD, n = 3): 27.43 ± 0.96%
Tmax [3]: 4 h
AUC(0-t) ([3]; mean ± SD, n = 3): 1240 ± 189 µg·h/mL
Cmax ([3]; mean ± SD, n = 3): 125 ± 3.8 µg/mL
Hansen solubility parameter δ [4]: 24.8 MPa^1/2
